Marks after values point to notes of the source that are not given here.
How the values were obtained:
[1] = Weight loss in DIO mice, chronic dosing: body weight; format: in vivo, mouse; conditions: 0.3 nmol/kg s.c. every day
Experimental: (§1) Compound 1 was evaluated for its ability to reduce foot intake and body weight and improve glucose homeostasis on repeat dosing in male DIO C57Bl/6 mice over a period of 8 days. Male DIO C57BL/6N mice (20 weeks of age, 14 weeks on high fat diet) were obtained from Taconic Laboratory. […] Animals were acclimated to the facility for at least one week prior to the start of the experiment.
(§2) The day prior to dosing, mice were grouped based on individual body weights. At 3:00-4:00 pm for each of the next 8 days, animals and food intake were weighed. […] After 8 days, mice are fasted for 5 hours and then given a 2 g/kg bolus of glucose orally at t=0. At t=0, 30, 60, 90, and 120 minutes post glucose challenge blood glucose is measured and at t=0, 30, and 90 minutes blood in drawn to measure plasma insulin. […] All data are presented as the mean±SEM (FIGS. 8 and 9, and Tables 5-8).

[2] = OGTT after 8 days of treatment in DIO mice (glucose, insulin); format: in vivo, mouse; conditions: 0.3 nmol/kg s.c. every day
Experimental: as §1, §2

[3] = Fed blood glucose after 8 days of treatment in DIO mice; format: in vivo, mouse; conditions: 0.3 nmol/kg s.c. every day
Experimental: as §1, §2

human GCGR = target: T1, human GCGR (Homo sapiens, UniProt P47871); assay: human glucagon receptor cAMP assay; format: cell-based; conditions: HEK293 cells
T1 construct: expressed in transfected cells
T1 sequence (P47871 26-477): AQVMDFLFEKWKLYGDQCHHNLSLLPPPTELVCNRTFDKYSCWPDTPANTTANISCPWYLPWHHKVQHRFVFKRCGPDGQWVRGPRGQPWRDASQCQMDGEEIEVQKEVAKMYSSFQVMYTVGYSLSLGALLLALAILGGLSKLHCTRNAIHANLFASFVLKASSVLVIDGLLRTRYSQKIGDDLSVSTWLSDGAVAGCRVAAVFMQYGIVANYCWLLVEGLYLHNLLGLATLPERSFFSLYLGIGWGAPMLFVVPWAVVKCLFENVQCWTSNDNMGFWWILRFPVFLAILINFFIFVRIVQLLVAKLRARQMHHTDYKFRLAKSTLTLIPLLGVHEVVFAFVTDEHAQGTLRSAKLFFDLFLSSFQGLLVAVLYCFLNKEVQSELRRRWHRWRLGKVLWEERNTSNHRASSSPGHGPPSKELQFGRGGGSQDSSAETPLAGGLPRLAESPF
Experimental: (§3) For each receptor assay, the clonal cells were seeded into 384-well plates at the appropriate densities ranging from 2000-5000 cells/per well. Compounds were diluted in HBSS supplemented with 5 mM HEPES, 0.1% BSA and 0.5 mM IBMX and added to the cells. […] Standard curves were included in each assay plate for back calculation of cAMP concentrations.

mouse GLP1R = target: T2, mouse GLP1R (Mus musculus, UniProt O35659); assay: mouse GLP1 receptor cAMP assay; format: cell-based; conditions: HEK293 cells
T2 construct: expressed in transfected cells
T2 sequence (O35659 22-463): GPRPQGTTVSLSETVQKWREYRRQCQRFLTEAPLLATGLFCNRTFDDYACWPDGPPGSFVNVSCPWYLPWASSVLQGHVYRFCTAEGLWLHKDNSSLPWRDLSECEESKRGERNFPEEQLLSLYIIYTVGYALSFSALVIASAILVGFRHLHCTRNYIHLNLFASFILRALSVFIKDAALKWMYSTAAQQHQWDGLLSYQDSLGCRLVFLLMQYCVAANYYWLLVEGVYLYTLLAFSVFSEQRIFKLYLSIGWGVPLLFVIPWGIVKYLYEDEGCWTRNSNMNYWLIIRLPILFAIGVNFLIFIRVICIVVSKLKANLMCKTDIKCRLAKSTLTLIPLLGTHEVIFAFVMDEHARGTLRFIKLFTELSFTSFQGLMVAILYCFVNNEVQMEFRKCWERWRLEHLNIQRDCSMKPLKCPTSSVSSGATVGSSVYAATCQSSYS
Experimental: as §3

cynomolgus monkey GCGR = assay: cynomolgus monkey glucagon receptor cAMP assay; format: cell-based; conditions: HEK293 cells
Experimental: as §3

[4] = Repeat dosing in DIO mice: food intake, body weight, body composition; format: in vivo, mouse; conditions: 0.3 nmol/kg s.c. daily
Experimental: (§4) To control for the dosing frequency, all animals were dosed daily. Dosing frequency was determined on the basis of DIO mouse PK data for compound 2 and dulaglutide. Animals in the dulaglutide group received this drug daily. The vehicle-treated animals received vehicle daily. […] The day prior to initiating of dosing, animals were weighed and grouped by body weight. […].
(§5) Beginning 24-hr after the first dosing, three groups of mice were pair-fed (PF) to the 1.0, 2.0, or 4.0 nmol/kg compound 2-treated animals. The amount of food in the hopper of pair-fed mice was adjusted to match the average food consumed in the previous 24 hours by mice in the compound treatment group to which they were being matched. All PF groups were dosed daily with vehicle. On the ninth day (or Day 10 for the pair-fed groups), animals were fasted for 6 hours and body weight and fasting glucose were measured. Blood was collected for measurements of insulin, FGF21 and plasma lipids. The food intake, body weight, body composition, fasting glucose, fasting insulin, fasting FGF21, and fasting plasma lipid data are shown in tables 20-26.

[5] = Repeat dosing in DIO mice: fasting glucose, insulin, FGF21, plasma lipids; format: in vivo, mouse; conditions: 0.3 nmol/kg s.c. daily
Experimental: as §4, §5

[6] = Single-dose efficacy in DIO mice: plasma FGF21; conditions: 0.3 nmol/kg s.c., 26 hours after treatment
[7] = Single-dose efficacy in DIO mice: food intake, body weight
[8] = Single-dose efficacy in DIO mice: IPGTT, fasting glucose, insulin; conditions: 0.3 nmol/kg s.c.

## Dulaglutide: the GLP1R agonist, dulaglutide [reference compound]
[1]; day 0
  body weight: 45.9 ± 0.6 g
[1]; day 1
  body weight: 44.1 ± 0.6 g
[1]; day 2
  body weight: 42.2 ± 0.6 g
[1]; day 3
  body weight: 40.6 ± 0.6 g
[1]; day 4
  body weight: 39.3 ± 0.6 g
[1]; day 5
  body weight: 38.1 ± 0.7 g
[1]; day 6
  body weight: 37.1 ± 0.8 g
[1]; day 7
  body weight: 36.4 ± 1.0 g
[1]; day 8
  body weight: 36.5 ± 1.1 g
[1]; day −1
  body weight: 46.3 ± 0.6 g
[2]
  blood glucose Delta AUC (OGTT): 6668 ± 1846 mg/dl/120 min
  blood glucose Total AUC (OGTT): 15758 ± 1054 mg/dl/120 min
[2]; 0 min after glucose challenge
  blood glucose during OGTT: 76 ± 9 mg/dL
  insulin during OGTT: 0.6 ± 0.1 ng/mL
[2]; 30 min after glucose challenge
  blood glucose during OGTT: 151 ± 14 mg/dL
  insulin during OGTT: 1.7 ± 0.2 ng/mL
[2]; 60 min after glucose challenge
  blood glucose during OGTT: 174 ± 17 mg/dL
[2]; 90 min after glucose challenge
  blood glucose during OGTT: 104 ± 10 mg/dL
  insulin during OGTT: 0.7 ± 0.2 ng/mL
[2]; 120 min after glucose challenge
  blood glucose during OGTT: 119 ± 9 mg/dL
[3]
  fed Blood Glucose: 114 ± 13 mg/dL
Human GCGR
  EC50: > 100 nM
Mouse GLP1R
  EC50: 0.035 ± 0.002 nM
Cynomolgus monkey GCGR
  EC50: > 100 nM
[4]; after repeated dosing
  body composition: Fat % of Body Weight: 22.8 ± 1.2%
  body composition: Fat Mass: 7.6 ± 1.1 g
  body composition: Lean % of Body Weight: 61.0 ± 1.7%
  body composition: Lean Mass: 22.1 ± 0.3 g
[4]; day 0
  daily food intake: 3.1 ± 0.2 grams
  percent body weight change: 0.0%
[4]; day 1
  daily food intake: 1.5 ± 0.2 grams
  percent body weight change: −3.7 ± 0.3%
[4]; day 2
  daily food intake: 1.3 ± 0.2 grams
  percent body weight change: −6.2 ± 0.6%
[4]; day 3
  daily food intake: 1.7 ± 0.3 grams
  percent body weight change: −7.8 ± 0.8%
[4]; day 4
  daily food intake: 1.9 ± 0.2 grams
  percent body weight change: −9.2 ± 0.8%
[4]; day 5
  daily food intake: 2.1 ± 0.2 grams
  percent body weight change: −10.1 ± 0.8%
[4]; day 6
  daily food intake: 2.2 ± 0.2 grams
  percent body weight change: −10.2 ± 0.8%
[4]; day 7
  daily food intake: 2.3 ± 0.2 grams
  percent body weight change: −10.7 ± 1.0%
[4]; day 8
  daily food intake: 2.9 ± 0.4 grams
  percent body weight change: −11.1 ± 0.9%
[4]; day 9
  daily food intake: 2.5 ± 0.2 grams
  percent body weight change: −13.1 ± 1.1%
[5]; after repeated dosing
  plasma Free Fatty Acids: 73.2 ± 12.0 µmol/L
  plasma Free Glycerol: 0.5 ± 0.1 mmol/L
  plasma Total cholesterol: 146.1 ± 3.3 mg/dL
  plasma Triglycerides: 24.1 ± 2.3 mg/dL
[5]; after repeated dosing (9 days)
  6 hour fasting Blood Glucose: 123 ± 5 mg/dL
  6 hour fasting Plasma Insulin: 1.4 ± 0.2 ng/mL
  6 hour fasting plasma FGF21: 0.5 ± 0.1 ng/mL
[6]
  Plasma FGF21: 0.8 ± 0.2 ng/mL
[7]; 0.3 nmol/kg group, 24 hours pre-dose
  food intake: 3.1 ± 0.1 grams
[7]; single s.c. dose 0.3 nmol/kg, 18 hours after treatment
  Weight Change: −4.1 ± 0.3 %
[7]; single s.c. dose 0.3 nmol/kg, 18 hours post-dose
  food intake: 1.5 ± 0.1*^ grams
[8]; 10 minutes post-glucose (IPGTT)
  Plasma Insulin: 1.7 ± 0.2 ng/mL
[8]; 24 hours after treatment
  6 hour fasting Blood Glucose: 140 ± 7 mg/dL
  Blood Glucose Net AUC (IPGTT): 8471 ± 1204
[8]; 24 hours after treatment, 0 min
  blood glucose during IPGTT: 140 ± 7 mg/dL
[8]; 24 hours after treatment, 10 min
  blood glucose during IPGTT: 264 ± 18 mg/dL
[8]; 24 hours after treatment, 30 min
  blood glucose during IPGTT: 267 ± 22 mg/dL
[8]; 24 hours after treatment, 60 min
  blood glucose during IPGTT: 228 ± 12 mg/dL
[8]; 24 hours after treatment, 90 min
  blood glucose during IPGTT: 193 ± 9 mg/dL
[8]; Pre-glucose (24 hours after treatment)
  Plasma Insulin: 1.6 ± 0.2 ng/mL

From US10428134B2, “Immunoglobulins and uses thereof” (JANSSEN PHARMACEUTICA NV, priority 2016, dated 2019)
